Measured values published in PubChem BioAssay AID2305 (GlaxoSmithKline (GSK), 2010).
“And” between values parts separate entries of the source, which are not always exact repeats. Equal values may be shown once.

test system: P. falciparum 3D7 growth, pLDH absorbance; assay: P. falciparum 3D7 growth inhibition, dose response, strain 3D7 (AID 2305)

| Compound | IC50 |
| --- | --- |
| O=C(Nc1cc(C(F)(F)F)ccc1-n1cncn1)C1(c2ccccc2)CC1 | 60 nM |
| CCOc1ccc(Br)cc1/C=C/C(=O)Nc1ccc(C2CCN(C)CC2)cc1 | 450 nM |
| O=C(NC1CCC(CN2CCC(c3c[nH]c4ccccc34)CC2)CC1)c1cc2cccc([N+](=O)[O-])c2[nH]1 (stereo unspecified) | 340 nM |
| CCOC(=O)c1[nH]c(-c2cc(Cl)nc(Cl)c2)nc1NC(=S)NCc1ccc(NS(C)(=O)=O)cc1 | 890 nM |
| Cc1cccc(C)c1CNc1cccc(-c2nc(C)c(C)[nH]2)c1 | 880 nM |
| CCOC(=O)CCCCCNC[C@H](O)c1ccccc1 | 330 nM |
| CS(=O)(=O)Nc1ccc2[nH]cc(C3CCN(CC4CCC(NC(=O)/C=C/c5ccc(Cl)c(Cl)c5)CC4)CC3)c2c1 (stereo unspecified) | 850 nM |
| COc1cc2nccc(Nc3cc(C)cc(O)c3)c2cc1OC | 910 nM |
| Cc1cc2nc(NC3=NC4(c5ccccn5)N=C(Nc5nc6cc(C)c(C)cc6[nH]5)NC4(c4ccccn4)N3)[nH]c2cc1C (stereo unspecified) | 680 nM |
| Clc1ccc2c(NN=Cc3cccnc3)ccnc2c1 | 700 nM |
| CC(=O)C1(c2ccccc2)CCN(CCC2(c3ccc(Cl)c(Cl)c3)CN(C(=O)C3CCCC3)CCO2)CC1 (stereo unspecified) | 800 nM |
| O=C(NC1CCC(CN2CCC(c3c[nH]c4ccccc34)CC2)CC1)c1cc2ccccc2o1 (stereo unspecified) | 970 nM |
| COc1cc2nc(N(C)C3CCN(Cc4ccccc4)CC3)nc(N)c2cc1OC | 330 nM |
| C[C@@H]1CN(c2cnn(Cc3cccc(NC(=O)Nc4cccc(C(F)(F)F)c4)c3)c(=O)c2Cl)C[C@H](C)N1 | 820 nM |
| CCC(=O)NC(c1ccco1)c1cc(Cl)c2cccnc2c1O (stereo unspecified) | 870 nM |
| Cc1ccc(NC(=O)N2CCCN(CCCCCNC(=O)/C=C/c3ccc(Cl)c(Cl)c3)CC2)cc1 | 760 nM |
| CCN(CC)CCNC(=O)c1ccc(NC(=O)c2cc(-c3ccncc3)nc3ccccc23)cc1 | 770 nM |
| O=C(Nc1ccc2c(c1)OCO2)c1cc(-c2cccnc2)nc2ccc(Cl)cc12 | 520 nM |
| Cc1nc(N=C(N)N)nc2ccc(C(C)(C)C)cc12 | 750 nM |
| CN1CCN(c2ccnc3ccc(NC(=O)Nc4ccc(Cl)c(Cl)c4)cc23)CC1 | 880 nM |
| O=C(c1cnn(-c2ccccc2)c1C(F)(F)F)N1CCN(c2ccnc3cc(Cl)ccc23)CC1 | 530 nM |
| O=C(Nc1ccc(Cl)cc1)Nc1cccc(CCNCc2ccccc2)c1 | 730 nM |
| CC1(C)Cc2c([nH]c3ccccc23)C(CCCCCCCCC2=NC(C)(C)Cc3c2[nH]c2ccccc32)=N1 | 930 nM |
| CS(=O)(=O)NCCCNCc1ccc(-c2cccc(-c3nc4ccc(C(F)(F)F)cc4[nH]3)c2)cc1 | 850 nM |

| Compound | IC50 |
| --- | --- |
| COc1ccc2ncc(C#N)c(CCN3CCC(NCc4ccc5c(c4)OCCO5)CC3)c2c1 | 910 nM |
| CN1CCCC1CNS(=O)(=O)c1ccc(C(=O)NCC2CC2)cc1 (stereo unspecified) | 170 nM |
| COc1ccc2ncc(F)c(CCN3C[C@H](CNCc4ccc5oc(=O)ccc5c4)[C@H](O)C3)c2n1 | 950 nM |
| CC(C)C[C@H](NC(=O)c1cc2ccccc2s1)C(=O)N[C@H]1CCN(Cc2ccc(I)c(OC3CCN(C)C3)c2)C1 (stereo partly specified) | 920 nM |
| Cc1cc(NN=Cc2ccc(F)cc2)c2cc(C(F)(F)F)ccc2n1 | 230 nM |
| COc1ccc(Nc2ncc3c(-c4cccc(NC(=O)Cc5ccncc5)c4)c[nH]c3n2)cc1OC | 1230 nM |
| COc1cc2ccccc2c(OC)c1CNCCCCCCNCc1c(OC)cc2ccccc2c1OC | 990 nM |
| O=S(=O)(c1ccccc1Cl)N1CCCCC(c2ccc(C(F)(F)F)cc2)=N1 | 940 nM |
| CN(C)c1ccc(C2(c3ccccc3)N=C(N)N(CCCc3ccccc3)C2=O)cc1 (stereo unspecified) | 970 nM |
| COc1ccc2c(c1)CC1CN(CCCCNC(=O)c3ccc(NC(=O)c4cc(Cl)cc(Cl)c4)cc3)CCN1C2 (stereo unspecified) | 770 nM |
| COc1ccc2nc(N(CCCn3ccnc3)C(=O)C=Cc3cccs3)sc2c1 | 1050 nM |
| Cc1ccc(Cc2c(N)nc3nc(N)nc(N)c3c2C)cc1 | 190 nM |
| Cc1sc2nc(CN3CCCC3)nc(-n3c(NCCO)nc4ccccc43)c2c1C | 1240 nM |
| COc1ccc(NS(=O)(=O)c2ccccc2Br)cc1N1CCN(C)CC1 | 970 nM |
| Cc1nc2nc(N)nc(N)c2c(C)c1Cc1cccc(C#N)c1 | 920 nM |
| CCN(CCO)CCc1cccc(Nc2nccc(-c3c(-c4ccc(NC(=O)C(C)(C)C)cc4)nn4ccccc34)n2)c1 | 710 nM |
| COc1ccc2ccccc2c1CNCC1CCN(CC2CCCCC2)CC1 | 760 nM |
| Oc1cc2c(cc1CN1CCN(Cc3ccccc3F)CC1)CCC2 | 760 nM |
| COc1cccc(-c2cccc(-c3ccc(NC(=O)c4ccc([N+](=O)[O-])o4)cc3)n2)c1 | 520 nM |
| N=C(N)c1ccc(NN=Cc2ccc(Oc3ccc(C(=N)N)cc3)cc2)cc1 | 90 nM |
| COc1cc2nc(N3CCN(C(=O)c4c(Cl)nsc4-c4ccccc4Cl)CC3)nc(N)c2cc1OC | 530 nM |
| CCCNCc1ccc(-c2ccc(CN(Cc3ccc4c(c3)OCO4)C(=O)Cc3cccnc3)cc2)nc1 | 860 nM |
| COc1ccccc1OCCN(CC(O)COc1cccc2[nH]c3ccccc3c12)CC(O)COc1cccc2[nH]c3ccccc3c12 (stereo unspecified) | 640 nM |
| Cc1noc(-c2cccs2)c1C(=O)NCCc1cccc(Cl)c1 | 460 nM |

| Compound | IC50 |
| --- | --- |
| O=C(NCCCCCN1CCC(c2c[nH]c3ccccc23)CC1)Nc1ccc(I)c(Cl)c1 | 970 nM |
| COc1cc2nc(Cl)nc(Nc3ccncc3)c2cc1OC | 1210 nM |
| NC(N)=NN=C1C=Cc2cccc3cccc1c23 | 610 nM |
| O=C(/C=C/c1cc(F)c(F)cc1F)N1CCC(CN2CCC(c3c[nH]c4ccccc34)CC2)CC1 | 1000 nM |
| O=C1OC2(CN1CC1CCN(Cc3ccc(O)cc3Cl)C1)c1ccccc1-c1ccccc12 (stereo unspecified) | 1170 nM |
| CN(C)CCOc1ccc(N2CCN(CCCCNC(=O)c3ccc(/C=C/c4cc(Cl)cc(Cl)c4)cc3)CC2)cc1 | 1000 nM |
| CCN(Cc1ccc(-c2ccc(C(F)(F)F)cc2)cc1)C(=O)Cn1c(SCc2cccc(F)c2F)cc(=O)c2cc(CN3CCCCC3)ccc21 | 800 nM |
| Cc1nc(-c2ccc(-c3ccc(NC(=O)Nc4ccc(I)c(OCCN(C)C)c4)cc3)c(C)c2)no1 | 370 nM |
| CN1CCN(CCc2ccc3nc(-c4csc(Cc5cc(Cl)ccc5OCc5ccccc5)n4)[nH]c3c2)CC1 | 750 nM |
| CN1CCN(Cc2c(O)ccc3c(=O)c(Oc4ccc(C(C)(C)C)cc4)c(C(F)(F)F)oc23)CC1 | 810 nM |
| CC1(C)N=C(N)N=C(N)N1OCCSCCON1C(N)=NC(N)=NC1(C)C | 50 nM |
| CS(=O)(=O)c1ccc(CNCc2cccc(-c3cccc(-c4nc5ccc(C(F)(F)F)cc5[nH]4)c3)c2)cc1 | 180 nM |
| Cc1nc(N)nc(N)c1-c1cccc(Cl)c1 | 1170 nM |
| COc1c(CCNCCCCNCCc2cc(Cl)c3ccccc3c2OC)cc(Cl)c2ccccc12 | 170 nM |
| CCCC[C@H](NC(=O)O[C@H](COc1ccc(OCc2ccccc2)cc1)C(C)(C)C)C(=O)C(=O)Nc1ccn[nH]1 | 990 nM |
| O=C(NNC(=O)c1ccc(CCN2CCC(c3nc(COCC(F)(F)F)c(-c4ccc(F)cc4)o3)CC2)cc1)Nc1ccc(Oc2ccccc2)cc1 | 710 nM |
| COc1ccc(N2C(N)=NC(N)=NC2(C)C)cc1 | 110 nM |
| CCC(CO)NCC(O)Cn1c2ccc(Cl)cc2c2cc(Cl)ccc21 (stereo unspecified) | 770 nM |
| Cc1ccc(/C=C/C(=O)NC2CCC(CN3CCC(c4c[nH]c5ccccc45)CC3)CC2)cc1 (stereo unspecified) | 920 nM and 800 nM |
| Cc1cc(-c2ccc3c(c2)CCN(CCC2CCC(NC(=O)/C=C/c4cccc(Cl)c4)CC2)CC3)on1 (stereo unspecified) | 590 nM |
| CCc1cn2c3c(cc(C(=O)N[C@@H](Cc4cc(F)cc(F)c4)[C@H](O)CNC4CCCCC4)cc13)N(C)S(=O)(=O)CC2 | 30 nM |
| O=C(Nc1ccccc1Cl)N(Cc1cc(Cl)cc(Cl)c1)CC(O)COc1ccc(Cl)c(F)c1 (stereo unspecified) | 790 nM |
| O=C(Nc1ccc(-c2cccc(-c3nc4ccc(F)cc4[nH]3)c2)cc1)Nc1ccc(Cl)c(Cl)c1 | 650 nM |
| FC(F)(F)c1ccc2nc(-c3ccc(-c4ccc(CN5CCN(c6cnccn6)CC5)cc4)cc3)[nH]c2c1 | 690 nM |

| Compound | IC50 |
| --- | --- |
| CC(C)(C(=O)Nc1ccc(C2CCC(NCC3CC3)CC2)c(Cl)c1)c1cccc(OC(F)F)c1 (stereo unspecified) | 970 nM |
| COc1cccc(CN2CCC(CCOC(c3ccccc3)c3ccccc3)CC2)c1O | 730 nM |
| CCCN(CCC)C(=O)c1cc(C(=O)N[C@@H](Cc2ccccc2)[C@H](O)CNCc2cccc(C(F)(F)F)c2)cc(N2CCCCS2(=O)=O)c1 | 880 nM |
| CCNc1cc(C(=O)N[C@@H](Cc2ccccc2)[C@H](O)CNC2CCC(C(C)(C)C)CC2)cc(N2CCCC2=O)c1 (stereo partly specified) | 440 nM |
| O=C(Nc1ccc(Cl)c(Cl)c1)Nc1ccc(F)c([N+](=O)[O-])c1 | 700 nM |
| Cc1cc(NC2CCCC2)nc(Nc2ccccc2)n1 | 990 nM |
| O=C(Nc1ccc(F)cc1)N1CCCN(c2ccnc3cc(Cl)ccc23)CC1 | 790 nM |
| Nc1ncc(-c2ccccc2)cc1-c1nc2cc(Cl)c(F)cc2[nH]1 | 260 nM |
| CC(C)N1CCN(c2ccc(OCCCN3CCN(c4cccc(Cl)c4Cl)CC3)c(C(F)(F)F)c2)CC1 | 810 nM |
| CC(=O)Nc1ccc(C#Cc2ccc(-c3c(C)[nH]c(C)c(Cl)c3=O)cc2)cc1 | 460 nM |
| CS(=O)(=O)Cc1cccc(Nc2ncc(Cl)c(Nc3cccnc3C(N)=O)n2)c1 | 170 nM |
| CCOc1ccc(-c2nc(NC(=O)COc3ccc(OC)cc3)sc2C)cc1 | 540 nM |
| Cc1cc(NC(=O)[C@@H](Nc2ccc(C#N)c3ccccc23)C2CCCCC2)ccc1F | 890 nM |
| O=C(Nc1cccc(CN2CCCN(Cc3cccnc3)CC2)c1)c1cc2ccccc2s1 | 1470 nM |
| CC[C@H]1CN2CC[C@@H]1C[C@H]2[C@H](O)c1cc(N2CCCC(C)(C)C2)nc2ccc(OC)cc12 | 340 nM |
| COc1ccc(-c2cc3nc4c(c(NCCCn5ccnc5)n3n2)CCCC4)cc1 | 730 nM |
| CCCC(=O)Nc1ccc(OCCCN(Cc2cccc(C(F)(F)F)c2)c2ccc(C#N)c(C(F)(F)F)c2)cc1 | 1090 nM |
| CCC(NC[C@@H](O)[C@H](Cc1ccccc1)NC(=O)c1cc(C2CCCC2)cc(N2CCCC2=O)c1)c1cccc(Cl)c1 (stereo partly specified) | 40 nM |
| Fc1ccc(-c2cc3ncnc(N4CCN(CCN5CCCC5)CC4)c3s2)cc1 | 740 nM |
| Cc1ccc(NC(=O)c2cccc(CN3CCCN(Cc4cccc(O)c4)CC3)c2)cc1C | 1040 nM |
| O=C(NCCN1CCCCC1)c1cccc(Nc2nccc(Nc3ccc(Oc4ccccc4)cc3)n2)c1 | 270 nM |
| CC(=O)Nc1ccc(CN2Cc3ccc(NC(=O)Nc4ccc(Oc5ccccc5)cc4)cc3C2)s1 | 920 nM |
| Cc1c(Cc2ccccc2)c(=O)oc2c(C)c3c(cc12)CN(CC(C)c1ccccc1)CO3 (stereo unspecified) | 450 nM |
| Cc1nc(-c2nc(NCc3ccccn3)ncc2-c2ccsc2)sc1C | 560 nM |
